Test results: patent US9605008B2, “Benzyl-1H-pyrazolo[3,4-b]pyridines and use thereof” (BAYER PHARMA AKTIENGESELLSCHAFT, priority 2013, dated 2017)

Assays:
[1] = target: recombinant guanylate cyclase reporter cell line (Rattus norvegicus (Rat), UniProt P19686+P20595); assay: Effect on a recombinant guanylate cyclase reporter cell line; type: cell-based; conditions: in some cases means of individual determinations
Description: B-2. Effect on a Recombinant Guanylate Cyclase Reporter Cell Line
The cellular activity of the compounds according to the invention is determined using a recombinant guanylate cyclase reporter cell line, as described in F. Wunder et al., Anal. Biochem. 339, 104-112 (2005).
Representative values (MEC=minimum effective concentration) for the compounds according to the invention are shown in the table below (Table 1; in some cases as means of individual determinations): […]

[2] = target: human phosphodiesterase 5 (PDE 5) (Homo sapiens (Human), UniProt O76074); assay: Inhibition of human phosphodiesterase 5 (PDE 5); type: biochemical; conditions: PDE 5 preparation from human platelets; [8-3H] cGMP substrate, SPA; in some cases means of individual determinations
Description: B-3. Inhibition of Human Phosphodiesterase 5 (PDE 5)
PDE 5 preparations are obtained from human platelets by disruption (Microfluidizer®, 800 bar, 3 passes), followed by centrifugation (75000 g, 60 min, 4° C.) and ion exchange chromatography of the supernatant on a Mono Q 10/10 column (linear sodium chloride gradient, elution with a 0.2-0.3M solution of sodium chloride in buffer (20 mM Hepes pH 7.2, 2 mM magnesium chloride). Fractions having PDE 5 activity are combined (PDE 5 preparation) and stored at −80° C.
To determine their in vitro action on human PDE 5, the test substances are dissolved in 100% DMSO and serially diluted. Typically, dilution series (1:3) from 200 μM to 0.091 μM are prepared (resulting final concentrations in the test: 4 μM to 0.0018 μM). In each case 2 μl of the diluted substance solutions are placed into the wells of microtitre plates (Isoplate-96/200W; Perkin Elmer). Subsequently, 50 μl of a dilution of the above-described PDE 5 preparation are added. The dilution of the PDE 5 preparation is chosen such that during the later incubation less than 70% of the substrate are converted (typical dilution: 1:100; dilution buffer: 50 mM tris/hydrochloric acid pH 7.5, 8.3 mM magnesium chloride, 1.7 mM EDTA, 0.2% BSA). The substrate, [8-^3H] cyclic guanosine-3′,5′-monophosphate (1 μCi/μl; Perkin Elmer) is diluted 1:2000 with assay buffer (50 mM tris/hydrochloric acid pH 7.5, 8.3 mM magnesium chloride, 1.7 mM EDTA) to a concentration of 0.0005 μCi/μl. By addition of 50 μl (0.025 μCi) of the diluted substrate, the enzyme reaction is finally started. The test mixtures are incubated at room temperature for 60 min and the reaction is stopped by adding 25 μl of a suspension of 18 mg/ml yttrium scintillation proximity beads in water (phosphodiesterase beads for SPA assays, RPNQ 0150, Perkin Elmer). The microtitre plates are sealed with a film and left to stand at room temperature for 60 min. Subsequently, the plates are analysed for 30 s per well in a Microbeta scintillation counter (Perkin Elmer). IC50 values are determined using the graphic plot of the substance concentration against percentage PDE 5 inhibition.

recombinant guanylate cyclase reporter cell line, sequence (P19686 whole entry): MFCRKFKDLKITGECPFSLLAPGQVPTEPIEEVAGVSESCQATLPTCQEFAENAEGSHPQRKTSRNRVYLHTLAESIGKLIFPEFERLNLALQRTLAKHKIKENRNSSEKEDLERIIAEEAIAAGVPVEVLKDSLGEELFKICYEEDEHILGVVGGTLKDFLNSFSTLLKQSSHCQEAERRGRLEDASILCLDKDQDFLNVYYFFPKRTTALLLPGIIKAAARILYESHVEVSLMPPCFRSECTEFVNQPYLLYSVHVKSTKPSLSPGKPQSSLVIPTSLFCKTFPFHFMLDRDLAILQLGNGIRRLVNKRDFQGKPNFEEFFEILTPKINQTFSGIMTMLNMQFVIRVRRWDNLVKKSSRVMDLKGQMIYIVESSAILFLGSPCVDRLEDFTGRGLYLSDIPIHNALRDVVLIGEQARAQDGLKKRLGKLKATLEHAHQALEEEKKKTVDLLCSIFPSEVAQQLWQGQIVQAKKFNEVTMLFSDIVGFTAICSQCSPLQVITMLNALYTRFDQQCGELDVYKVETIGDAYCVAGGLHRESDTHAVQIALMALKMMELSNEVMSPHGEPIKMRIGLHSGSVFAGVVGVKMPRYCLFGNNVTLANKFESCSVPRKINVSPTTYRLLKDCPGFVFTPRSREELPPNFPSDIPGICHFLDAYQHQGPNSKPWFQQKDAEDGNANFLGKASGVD
recombinant guanylate cyclase reporter cell line, sequence (P20595 whole entry): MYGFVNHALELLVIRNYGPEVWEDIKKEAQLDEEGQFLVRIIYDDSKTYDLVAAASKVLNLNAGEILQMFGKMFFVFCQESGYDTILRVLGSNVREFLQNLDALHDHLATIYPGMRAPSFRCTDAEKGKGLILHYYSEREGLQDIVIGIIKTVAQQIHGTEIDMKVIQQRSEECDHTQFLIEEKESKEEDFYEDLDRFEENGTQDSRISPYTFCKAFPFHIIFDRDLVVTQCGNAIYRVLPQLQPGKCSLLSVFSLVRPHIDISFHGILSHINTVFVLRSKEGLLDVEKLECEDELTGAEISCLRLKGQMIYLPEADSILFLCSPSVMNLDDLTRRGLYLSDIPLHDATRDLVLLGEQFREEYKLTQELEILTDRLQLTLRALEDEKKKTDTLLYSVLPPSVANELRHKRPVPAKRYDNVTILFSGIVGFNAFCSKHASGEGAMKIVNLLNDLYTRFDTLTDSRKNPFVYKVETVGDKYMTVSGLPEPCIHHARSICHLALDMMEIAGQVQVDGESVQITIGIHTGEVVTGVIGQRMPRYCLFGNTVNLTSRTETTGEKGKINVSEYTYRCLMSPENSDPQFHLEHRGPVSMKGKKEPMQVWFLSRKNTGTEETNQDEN

Row | SMILES | MEC (minimum effective concentration) [1] | IC50 [2]
1 | Cc1nc2c(cc1F)c(-c1nnc3c(n1)[N-]C(=O)C3(C)C)nn2Cc1cccc(F)c1F.[Na+] [Example 2, Sodium 3-[1-(2,3-difluorobenzyl)-5-fluoro-6-methyl-1H-pyrazolo[3,4-b]pyridin-3-yl]-7,7-dimethyl-6-oxo-6,7-dihydropyrrolo[2,3-e][1,2,4]triazin-5-ide] | 30 nM | 5 nM
2 | Cc1ccc2c(-c3nnc4c(n3)NC(=O)C4(C)C)nn(Cc3ccc(C)c(F)c3)c2n1 [Example 18, 3-[1-(3-Fluoro-4-methylbenzyl)-6-methyl-1H-pyrazolo[3,4-b]pyridin-3-yl]-7,7-dimethyl-5,7-dihydro-6H-pyrrolo[2,3-e][1,2,4]triazin-6-one] | 1000 nM | 10 nM
3 | Cc1nc2c(cc1F)c(-c1nnc3c(n1)NC(=O)C3(C)C)nn2Cc1cccc(Cl)c1F [Example 13, 3-[1-(3-Chloro-2-fluorobenzyl)-5-fluoro-6-methyl-1H-pyrazolo[3,4-b]pyridin-3-yl]-7,7-dimethyl-5,7-dihydro-6H-pyrrolo[2,3-e][1,2,4]triazin-6-one] | 100 nM | 42 nM
4 | Cc1ccc2c(-c3nnc4c(n3)NC(=O)C43CC3)nn(Cc3cccc(F)c3F)c2n1 [Example 24, 3′-[1-(2,3-Difluorobenzyl)-6-methyl-1H-pyrazolo[3,4-b]pyridin-3-yl]spiro[cyclopropane-1,7′-pyrrolo[2,3-e][1,2,4]triazin]-6′(5′H)-one] | 300 nM | 21 nM
5 | Cc1ccc(Cn2nc(-c3nnc4c(n3)NC(=O)C4(C)C)c3cc(F)c(C)nc32)c(F)c1F [Example 19, 3-[1-(2,3-Difluoro-4-methylbenzyl)-5-fluoro-6-methyl-1H-pyrazolo[3,4-b]pyridin-3-yl]-7,7-dimethyl-5,7-dihydro-6H-pyrrolo[2,3-e][1,2,4]triazin-6-one] | 300 nM | 0.25 nM
6 | Cc1nc2c(cc1F)c(-c1nnc3c(n1)NC(=O)C3(C)C)nn2Cc1ccc(Cl)cc1F [Example 9, 3-[1-(4-Chloro-2-fluorobenzyl)-5-fluoro-6-methyl-1H-pyrazolo[3,4-b]pyridin-3-yl]-7,7-dimethyl-5,7-dihydro-6H-pyrrolo[2,3-e][1,2,4]triazin-6-one] | 300 nM | 6 nM
7 | Cc1ccc2c(-c3nnc4c(n3)NC(=O)C4(C)C)nn(Cc3ccc(Cl)cc3F)c2n1 [Example 10, 3-[1-(4-Chloro-2-fluorobenzyl)-6-methyl-1H-pyrazolo[3,4-b]pyridin-3-yl]-7,7-dimethyl-5,7-dihydro-6H-pyrrolo[2,3-e][1,2,4]triazin-6-one] | 300 nM | 4.5 nM
8 | Cc1nc2c(cc1F)c(-c1nnc3c(n1)NC(=O)C3(C)C)nn2Cc1cccc(F)c1F [Example 1, 3-[1-(2,3-Difluorobenzyl)-5-fluoro-6-methyl-1H-pyrazolo[3,4-b]pyridin-3-yl]-7,7-dimethyl-5,7-dihydro-6H-pyrrolo[2,3-e][1,2,4]triazin-6-one] | 30 nM | 5 nM
9 | Cc1ccc2c(-c3nnc4c(n3)NC(=O)C4(C)C)nn(Cc3ccc(C)c(F)c3F)c2n1 [Example 20, 3-[1-(2,3-Difluoro-4-methylbenzyl)-6-methyl-1H-pyrazolo[3,4-b]pyridin-3-yl]-7,7-dimethyl-5,7-dihydro-6H-pyrrolo[2,3-e][1,2,4]triazin-6-one] | 300 nM | 0.65 nM
10 | Cc1nc2c(cc1F)c(-c1nnc3c(n1)NC(=O)C3(C)C)nn2Cc1c(F)ccc(F)c1F [Example 11, 3-[5-Fluoro-6-methyl-1-(2,3,6-trifluorobenzyl)-1H-pyrazolo[3,4-b]pyridin-3-yl]-7,7-dimethyl-5,7-dihydro-6H-pyrrolo[2,3-e][1,2,4]triazin-6-one] | 30 nM | 27 nM

Other lines, results leading:

Row | MEC (minimum effective concentration) [1] | IC50 [2] | SMILES
11 | 65 nM | 67 nM | Cc1nc2c(cc1F)c(-c1nnc3c(n1)NC(=O)C3(C)C)nn2Cc1c(F)cccc1F [Example 15, 3-[1-(2,6-Difluorobenzyl)-5-fluoro-6-methyl-1H-pyrazolo[3,4-b]pyridin-3-yl]-7,7-dimethyl-5,7-dihydro-6H-pyrrolo[2,3-e][1,2,4]triazin-6-one]
12 | 300 nM | 21 nM | Cc1ccc2c(-c3nnc4c(n3)NC(=O)C4(C)C)nn(Cc3c(F)ccc(F)c3F)c2n1 [Example 12, 7,7-Dimethyl-3-[6-methyl-1-(2,3,6-trifluorobenzyl)-1H-pyrazolo[3,4-b]pyridin-3-yl]-5,7-dihydro-6H-pyrrolo[2,3-e][1,2,4]triazin-6-one]
13 | 200 nM | 2 nM | Cc1ccc(Cn2nc(-c3nnc4c(n3)NC(=O)C4(C)C)c3ccc(C)nc32)c(F)c1 [Example 6, 3-[1-(2-Fluoro-4-methylbenzyl)-6-methyl-1H-pyrazolo[3,4-b]pyridin-3-yl]-7,7-dimethyl-5,7-dihydro-6H-pyrrolo[2,3-e][1,2,4]triazin-6-one]
14 | 300 nM | 8 nM | Cc1ccc(Cn2nc(-c3nnc4c(n3)NC(=O)C4(C)C)c3cc(F)c(C)nc32)cc1F [Example 17, 3-[5-Fluoro-1-(3-fluoro-4-methylbenzyl)-6-methyl-1H-pyrazolo[3,4-b]pyridin-3-yl]-7,7-dimethyl-5,7-dihydro-6H-pyrrolo[2,3-e][1,2,4]triazin-6-one]
15 | 100 nM | 1.5 nM | Cc1ccc(Cn2nc(-c3nnc4c(n3)NC(=O)C4(C)C)c3cc(F)c(C)nc32)c(F)c1 [Example 5, 3-[5-Fluoro-1-(2-fluoro-4-methylbenzyl)-6-methyl-1H-pyrazolo[3,4-b]pyridin-3-yl]-7,7-dimethyl-5,7-dihydro-6H-pyrrolo[2,3-e][1,2,4]triazin-6-one]
16 | 100 nM | 21 nM | Cc1nc2c(cc1F)c(-c1nnc3c(n1)NC(=O)C3(C)C)nn2Cc1ccc(F)cc1F [Example 7, 3-[1-(2,4-Difluorobenzyl)-5-fluoro-6-methyl-1H-pyrazolo[3,4-b]pyridin-3-yl]-7,7-dimethyl-5,7-dihydro-6H-pyrrolo[2,3-e][1,2,4]triazin-6-one]
17 | 300 nM | 24 nM | Cc1ccc2c(-c3nnc4c(n3)NC(=O)C4(C)C)nn(Cc3c(F)cccc3F)c2n1 [Example 16, 3-[1-(2,6-Difluorobenzyl)-6-methyl-1H-pyrazolo[3,4-b]pyridin-3-yl]-7,7-dimethyl-5,7-dihydro-6H-pyrrolo[2,3-e][1,2,4]triazin-6-one]
18 | – | 16 nM | Cc1ccc(Cn2nc(-c3nnc4c(n3)NC(=O)C43CC3)c3ccc(C)nc32)c(F)c1 [Example 22, 3′-[1-(2-Fluoro-4-methylbenzyl)-6-methyl-1H-pyrazolo[3,4-b]pyridin-3-yl]spiro[cyclopropane-1,7′-pyrrolo[2,3-e][1,2,4]triazin]-6′(5′H)-one]
19 | 300 nM | 34 nM | Cc1ccc2c(-c3nnc4c(n3)NC(=O)C4(C)C)nn(Cc3ccc(F)cc3F)c2n1 [Example 8, 3-[1-(2,4-Difluorobenzyl)-6-methyl-1H-pyrazolo[3,4-b]pyridin-3-yl]-7,7-dimethyl-5,7-dihydro-6H-pyrrolo[2,3-e][1,2,4]triazin-6-one]
20 | 300 nM | 63 nM | Cc1ccc2c(-c3nnc4c(n3)NC(=O)C4(C)C)nn(Cc3cccc(Cl)c3F)c2n1 [Example 14, 3-[1-(3-Chloro-2-fluorobenzyl)-6-methyl-1H-pyrazolo[3,4-b]pyridin-3-yl]-7,7-dimethyl-5,7-dihydro-6H-pyrrolo[2,3-e][1,2,4]triazin-6-one]
21 | 300 nM | 4 nM | Cc1ccc2c(-c3nnc4c(n3)NC(=O)C43CC3)nn(Cc3ccc(C)c(F)c3F)c2n1 [Example 26, 3′-[1-(2,3-Difluoro-4-methylbenzyl)-6-methyl-1H-pyrazolo[3,4-b]pyridin-3-yl]spiro[cyclopropane-1,7′-pyrrolo[2,3-e][1,2,4]triazin]-6′(5′H)-one]
